Laboratory results taken from patent US10059701B2 (Merck Patent GmbH, priority 2015, dated 2018).

Key:
IRAK4 = target: T1, IRAK4 (Homo sapiens, UniProt Q9NWZ3); assay: IRAK4 enzymatic assay (ADP-Glo luminescence); assay type: biochemical; conditions: purified human recombinant His-TEV-IRAK4 (1-460), ATP 2 μM
T1 construct: His-TEV-IRAK4 (1-460); His (N); TEV cleavage site (N)
T1 sequence (Q9NWZ3 1-460): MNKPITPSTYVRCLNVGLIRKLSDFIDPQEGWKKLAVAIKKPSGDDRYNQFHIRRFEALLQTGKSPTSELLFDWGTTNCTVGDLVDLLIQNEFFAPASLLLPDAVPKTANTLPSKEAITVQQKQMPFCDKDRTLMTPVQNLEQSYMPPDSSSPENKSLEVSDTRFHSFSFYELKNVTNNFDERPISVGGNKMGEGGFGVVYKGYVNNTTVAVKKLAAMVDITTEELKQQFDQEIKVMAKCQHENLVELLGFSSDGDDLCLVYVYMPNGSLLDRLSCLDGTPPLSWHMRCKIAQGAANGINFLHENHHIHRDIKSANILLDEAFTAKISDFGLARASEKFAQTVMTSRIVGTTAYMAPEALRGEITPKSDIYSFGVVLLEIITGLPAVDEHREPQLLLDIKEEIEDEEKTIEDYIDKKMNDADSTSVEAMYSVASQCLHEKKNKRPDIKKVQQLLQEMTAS
Outline: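 ADP-Glo luminescence read-out after a 2 h RT kinase reaction with 2 μM ATP and 300 nM biotinylated STK1 peptide. Enzyme (His-TEV-IRAK4 1-460, 0.3 μg/ml) first incubated 15 min with serially diluted compounds (10 μM–0.5 nM) in 50 mM Hepes pH 7.0, 10 mM MgCl2, 5 mM MnCl2.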

IRAK1 = target: T2, IRAK1 (Homo sapiens, UniProt P51617); assay: IRAK1 enzymatic assay (ADP-Glo luminescence); assay type: biochemical; conditions: purified human recombinant His-TEV-IRAK1 (194-712)
T2 construct: His-TEV-IRAK1 (194-712); His (N); TEV cleavage site (N)
T2 sequence (P51617 194-712): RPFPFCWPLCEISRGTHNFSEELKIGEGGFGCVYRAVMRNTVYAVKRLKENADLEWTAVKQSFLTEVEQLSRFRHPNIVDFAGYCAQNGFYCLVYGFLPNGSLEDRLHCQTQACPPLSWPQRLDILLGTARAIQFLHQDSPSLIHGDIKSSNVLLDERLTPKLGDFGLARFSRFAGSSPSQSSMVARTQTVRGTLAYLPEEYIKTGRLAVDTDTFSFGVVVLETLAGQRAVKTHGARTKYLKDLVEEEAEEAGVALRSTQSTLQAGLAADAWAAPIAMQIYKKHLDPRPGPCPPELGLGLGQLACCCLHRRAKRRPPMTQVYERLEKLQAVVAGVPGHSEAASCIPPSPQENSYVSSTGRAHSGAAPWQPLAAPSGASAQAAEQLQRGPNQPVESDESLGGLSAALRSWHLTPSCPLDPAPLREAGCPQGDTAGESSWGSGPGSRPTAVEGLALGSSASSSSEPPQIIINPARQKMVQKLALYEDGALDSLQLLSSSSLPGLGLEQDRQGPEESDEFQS
Outline: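 Luminescent ADP-Glo read-out of ATP turnover by purified His-TEV-IRAK1 (194-712) at 0.3 μg/ml after a 2-hour RT reaction. Compounds, serially diluted from 10 μM to 0.5 nM, were preincubated with enzyme 15 minutes in Hepes pH 7.0 buffer with MgCl2, DTT, EGTA and Triton X-100.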

O=C(/N=c1\[nH]c2cc(N3CCOCC3=O)ccc2n1[C@H]1CC[C@@H](O)CC1)c1cccc(C(F)(F)F)c1 [Compound 57, cis-(E)-N-(1-(4-hydroxycyclohexyl)-5-(3-oxomorpholino)-1H-benzo[d]imidazol-2(3H)-ylidene)-3-(trifluoromethyl)benzamide]
IC50 (IRAK4): ≤ 100 nM | IC50 (IRAK1): ≤ 100 nM

N#Cc1cccc(C(=O)/N=c2\[nH]c3cc(N4CCCOC4=O)ccc3n2CCCO)c1 [Compound 58, (E)-3-cyano-N-(1-(3-hydroxypropyl)-5-(2-oxo-1,3-oxazinan-3-yl)-1H-benzo[d]imidazol-2(3H)-ylidene)benzamide]
IC50 (IRAK4): ≤ 100 nM | IC50 (IRAK1): ≤ 100 nM

Cn1nc(C(=O)/N=c2\[nH]c3cc(N4CCOCC4=O)ccc3n2CCCO)c2ccccc21 [Compound 60, (E)-N-(1-(3-hydroxypropyl)-5-(3-oxomorpholino)-1H-benzo[d]imidazol-2(3H)-ylidene)-1-methyl-1H-indazole-3-carboxamide]
IC50 (IRAK4): > 1000 nM | IC50 (IRAK1): > 1000 nM

CSCCn1/c(=N/C(=O)c2cccc(C(F)F)c2)[nH]c2cc(N3CCOCC3=O)ccc21 [Compound 63, (E)-3-(difluoromethyl)-N-(1-(2-(methylthio)ethyl)-5-(3-oxomorpholino)-1H-benzo[d]imidazol-2(3H)-ylidene)benzamide]
IC50 (IRAK4): ≤ 100 nM | IC50 (IRAK1): 100 to 1000 nM

COc1cc2c(cc1N1CCOCC1=O)[nH]/c(=N\C(=O)c1cccc(CO)c1)n2CCCO [Compound 64, (E)-3-(hydroxymethyl)-N-(1-(3-hydroxypropyl)-6-methoxy-5-(3-oxomorpholino)-1H-benzo[d]imidazol-2(3H)-ylidene)benzamide]
IC50 (IRAK4): ≤ 100 nM | IC50 (IRAK1): 100 to 1000 nM

C[C@H](CCO)n1/c(=N/C(=O)c2cccc(OC(F)F)c2)[nH]c2cc(N3CCOCC3=O)ccc21 [Compound 65, (R,E)-3-(difluoromethoxy)-N-(1-(4-hydroxybutan-2-yl)-5-(3-oxomorpholino)-1H-benzo[d]imidazol-2(3H)-ylidene)benzamide]
IC50 (IRAK4): ≤ 100 nM | IC50 (IRAK1): ≤ 100 nM

O=C(/N=c1\[nH]c2cc(N3CCOCC3=O)ccc2n1CC1(CO)CC1)c1cccc(OC(F)F)c1 [Compound 66, (E)-3-(difluoromethoxy)-N-(1-((1-(hydroxymethyl)cyclopropyl)methyl)-5-(3-oxomorpholino)-1H-benzo[d]imidazol-2(3H)-ylidene)benzamide]
IC50 (IRAK4): ≤ 100 nM | IC50 (IRAK1): 100 to 1000 nM

Cc1cc2c(cc1N1CCOCC1=O)[nH]/c(=N\C(=O)c1cc(F)cc(C(F)(F)F)c1)n2CCCO [Compound 67, (E)-3-fluoro-N-(1-(3-hydroxypropyl)-6-methyl-5-(3-oxomorpholino)-1H-benzo[d]imidazol-2(3H)-ylidene)-5-(trifluoromethyl)benzamide]
IC50 (IRAK4): ≤ 100 nM | IC50 (IRAK1): ≤ 100 nM

Cc1cc2c(cc1N1CCOCC1=O)[nH]/c(=N\C(=O)c1cccc(C#N)c1)n2CCCO [Compound 68, (E)-3-cyano-N-(1-(3-hydroxypropyl)-6-methyl-5-(3-oxomorpholino)-1H-benzo[d]imidazol-2(3H)-ylidene)benzamide]
IC50 (IRAK4): ≤ 100 nM | IC50 (IRAK1): 100 to 1000 nM

Cc1cc2c(cc1N1CCOCC1=O)[nH]/c(=N\C(=O)c1cccc(C(F)F)c1)n2CCCO [Compound 69, (E)-3-(difluoromethyl)-N-(1-(3-hydroxypropyl)-6-methyl-5-(3-oxomorpholino)-1H-benzo[d]imidazol-2(3H)-ylidene)benzamide]
IC50 (IRAK4): ≤ 100 nM | IC50 (IRAK1): ≤ 100 nM

Cc1cc2c(cc1N1CCOCC1=O)[nH]/c(=N\C(=O)c1cccc(C(F)(F)F)c1)n2CCCO [Compound 70, (E)-N-(1-(3-hydroxypropyl)-6-methyl-5-(3-oxomorpholino)-1H-benzo[d]imidazol-2(3H)-ylidene)-3-(trifluoromethyl)benzamide]
IC50 (IRAK4): ≤ 100 nM | IC50 (IRAK1): 100 to 1000 nM

O=C(/N=c1\[nH]c2cc(N3CCOCC3=O)ccc2n1CCCO)c1cnccn1 [Compound 72, (E)-N-(1-(3-hydroxypropyl)-5-(3-oxomorpholino)-1H-benzo[d]imidazol-2(3H)-ylidene)pyrazine-2-carboxamide]
IC50 (IRAK4): > 1000 nM | IC50 (IRAK1): > 1000 nM

COc1cc2c(cc1N1CCOCC1=O)[nH]/c(=N\C(=O)c1cc(F)cc(C(F)(F)F)c1)n2CCCO [Compound 73, (E)-3-fluoro-N-(1-(3-hydroxypropyl)-6-methoxy-5-(3-oxomorpholino)-1H-benzo[d]imidazol-2(3H)-ylidene)-5-(trifluoromethyl)benzamide]
IC50 (IRAK4): ≤ 100 nM | IC50 (IRAK1): ≤ 100 nM

COc1cc2c(cc1N1CCOCC1=O)[nH]/c(=N\C(=O)c1cccc(C#N)c1)n2CCCO [Compound 74, (E)-3-cyano-N-(1-(3-hydroxypropyl)-6-methoxy-5-(3-oxomorpholino)-1H-benzo[d]imidazol-2(3H)-ylidene)benzamide]
IC50 (IRAK4): ≤ 100 nM | IC50 (IRAK1): ≤ 100 nM

COc1cc2c(cc1N1CCOCC1=O)[nH]/c(=N\C(=O)c1cccc(C(F)F)c1)n2CCCO [Compound 75, (E)-3-(difluoromethyl)-N-(1-(3-hydroxypropyl)-6-methoxy-5-(3-oxomorpholino)-1H-benzo[d]imidazol-2(3H)-ylidene)benzamide]
IC50 (IRAK4): ≤ 100 nM | IC50 (IRAK1): ≤ 100 nM

COc1cc2c(cc1N1CCOCC1=O)[nH]/c(=N\C(=O)c1cccc(C(F)(F)F)c1)n2CCCO [Compound 76, (E)-N-(1-(3-hydroxypropyl)-6-methoxy-5-(3-oxomorpholino)-1H-benzo[d]imidazol-2(3H)-ylidene)-3-(trifluoromethyl)benzamide]
IC50 (IRAK4): ≤ 100 nM | IC50 (IRAK1): ≤ 100 nM

O=C(/N=c1\[nH]c2cc(N3CCOCC3=O)ccc2n1CCCO)c1cccnc1 [Compound 77, (E)-N-(1-(3-hydroxypropyl)-5-(3-oxomorpholino)-1H-benzo[d]imidazol-2(3H)-ylidene)nicotinamide]
IC50 (IRAK4): ≤ 100 nM | IC50 (IRAK1): 100 to 1000 nM

Cc1ccc(C(=O)/N=c2\[nH]c3cc(N4CCOCC4=O)ccc3n2CCCO)cc1C(F)(F)F [Compound 78, (E)-N-(1-(3-hydroxypropyl)-5-(3-oxomorpholino)-1H-benzo[d]imidazol-2(3H)-ylidene)-4-methyl-3-(trifluoromethyl)benzamide]
IC50 (IRAK4): ≤ 100 nM | IC50 (IRAK1): > 1000 nM

O=C(/N=c1\[nH]c2cc(N3CCOCC3=O)ccc2n1CCCO)c1cccc(C(F)F)c1 [Compound 79, (E)-3-(difluoromethyl)-N-(1-(3-hydroxypropyl)-5-(3-oxomorpholino)-1H-benzo[d]imidazol-2(3H)-ylidene)benzamide]
IC50 (IRAK4): ≤ 100 nM | IC50 (IRAK1): ≤ 100 nM

O=C(/N=c1\[nH]c2cc(N3CCOCC3=O)ccc2n1C1CCS(=O)(=O)CC1)c1cccc(C(F)F)c1 [Compound 80, (E)-3-(difluoromethyl)-N-(1-(1,1-dioxidotetrahydro-2H-thiopyran-4-yl)-5-(3-oxomorpholino)-1H-benzo[d]imidazol-2(3H)-ylidene)benzamide]
IC50 (IRAK4): ≤ 100 nM | IC50 (IRAK1): ≤ 100 nM

O=C(/N=c1\[nH]c2cc(N3CCOCC3=O)ccc2n1CCCO)c1cc(F)cc(C(F)(F)F)c1 [Compound 81, (E)-3-fluoro-N-(1-(3-hydroxypropyl)-5-(3-oxomorpholino)-1H-benzo[d]imidazol-2(3H)-ylidene)-5-(trifluoromethyl)benzamide]
IC50 (IRAK4): ≤ 100 nM | IC50 (IRAK1): ≤ 100 nM

CS(=O)(=O)c1cccc(C(=O)/N=c2\[nH]c3cc(N4CCOCC4=O)ccc3n2CCCO)c1 [Compound 82, (E)-N-(1-(3-hydroxypropyl)-5-(3-oxomorpholino)-1H-benzo[d]imidazol-2(3H)-ylidene)-3-(methylsulfonyl)benzamide]
IC50 (IRAK4): ≤ 100 nM | IC50 (IRAK1): 100 to 1000 nM

O=C(/N=c1\[nH]c2cc(N3CCOCC3=O)ccc2n1CCCO)c1cccc(-n2cnnn2)c1 [Compound 83, (E)-N-(1-(3-hydroxypropyl)-5-(3-oxomorpholino)-1H-benzo[d]imidazol-2(3H)-ylidene)-3-(1H-tetrazol-1-yl)benzamide]
IC50 (IRAK4): ≤ 100 nM | IC50 (IRAK1): 100 to 1000 nM

O=C(/N=c1\[nH]c2cc(N3CCOCC3=O)ccc2n1CCCO)c1cccc(C(F)(F)F)n1 [Compound 84, (E)-N-(1-(3-hydroxypropyl)-5-(3-oxomorpholino)-1H-benzo[d]imidazol-2(3H)-ylidene)-6-(trifluoromethyl)picolinamide]
IC50 (IRAK4): 100 to 1000 nM | IC50 (IRAK1): > 1000 nM

O=C(/N=c1\[nH]c2cc(N3CCOCC3=O)ccc2n1CCCO)c1cncc(C(F)(F)F)c1 [Compound 85, (E)-N-(1-(3-hydroxypropyl)-5-(3-oxomorpholino)-1H-benzo[d]imidazol-2(3H)-ylidene)-5-(trifluoromethyl)nicotinamide]
IC50 (IRAK4): ≤ 100 nM | IC50 (IRAK1): 100 to 1000 nM

O=C(/N=c1\[nH]c2cc(N3CCOCC3=O)ccc2n1CCCO)c1cccc(C(F)(F)F)c1 [Compound 86, (E)-N-(1-(3-hydroxypropyl)-5-(3-oxomorpholino)-1H-benzo[d]imidazol-2(3H)-ylidene)-3-(trifluoromethyl)benzamide]
IC50 (IRAK4): ≤ 100 nM | IC50 (IRAK1): 100 to 1000 nM
